The results in this text go back to patent US10704076B2, “Multi-tiered high through-put screen for compounds effective against bacterial biofilm and compounds effective for inhibiting and eradicating bacterial biofilm” (University of Cincinnati, priority 2013, dated 2020).

SMILES strings stand for the structures. Converted amounts (≈) assume the structure as drawn. Like-named read-outs stand apart in the source and are kept apart here.

The AC50 is the concentration giving half of the maximal activity seen. High values mean weaker potency, low ones greater potency.

The test system of experiment [1] is S. epidermidis biofilm. The experiment in a line: CLSM, co-culture of bacteria with compound (inhibition of biofilm formation). In kind it is cell-based, Staphylococcus epidermidis. The following applies: for killing of residential bacteria, co-culture (CLSM, in words): 10 μM; for Co-culture of bacteria with compound: Killing: CLSM, 10 μM compound, 18 hrs, Y / —. As to the method:
Broad spectrum agents (effective against all three bacterial species) and single agent compounds identified as HTS hits were investigated with CLSM confirmation of inhibition of biofilm formation (culture of bacteria with compounds) or killing of bacteria residing within an established biofilm (compound addition after culturing biofilm). To evaluate inhibition of P. aeruginosa biofilms, bacteria were sub-cultured into 10% L-broth and grown at 37° C. until the OD600 reached 0.25. The bacteria were further diluted 1:100 into a modified 0.5×M63 minimum media (50 mM KH2PO4, 7.5 mM (NH4)2SO4, 9 μM FeSO4, 0.5% casamino acids, 0.2% glucose, and 1 mM MgSO4). A. baumannii biofilms were also grown in 10% L-broth until the OD600 reached 0.05 but diluted 1:10 into 5% L-broth media. S. epidermidis biofilm cultures were grown. Briefly, the bacteria were grown in TSB until the OD600 reached 0.75, and a 1:100 dilution of the bacteria was sub-cultured into phosphate buffered saline (PBS). All of the biofilm bacterial cultures were grown in 96-well plate chambers (MatTek Corp., Ashland, Mass.) in the presence of 10 μM of each compound or DMSO as a control and incubated for 18 hrs at 37° C. To investigate the ability of compounds to kill bacteria within pre-existing biofilms, biofilms were grown under the same conditions, but without test compound. These biofilms were washed once with PBS and incubated an additional 24 hr at 37° C. in PBS containing 300 μM of each compound. All biofilm cultures were then washed twice with 100 μL of PBS and stained using the LIVE/DEAD® BacLight™ Bacterial Viability Kit (Invitrogen). Finally, biofilm images were obtained using a Zeiss LSM510 META Confocal Microscope (Carl Zeiss, Inc., Germany). A 488 nm laser was used in conjunction with a Plan-Apochromat 100×/1.4 Oil DIC objective. Z-stacks were 8 bit and measured 127.3 μm×127.3 μm×16.0 μm in size. The filters used were 505-530 and 620-680 IR, as the excitation and emission wavelengths for red fluorescence are 490 nm and 635 nm, respectively, and 480 nm and 500 nm for green fluorescence. Three dimensional images were generated using the “Projection” ability on LSM Image Browser software (v.1.4.0.121) or Zeiss LSM image browser software version 3.5 (Carl Zeiss, Inc., Germany), and Live/Dead calculations were conducted based upon these images using MacBiophotonics ImageJ following the guidelines in the cell counting guide by C. Labno {Rasband, 1997-2011 #25; Labno, #2} at the University of Chicago Integrated Light Microscopy Core. The thickness of the biofilm was calculated using Comstat software. A hit was defined as a >50% dead to live ratio.
The CLSM experiment was performed in one or two or all bacteria used in this study depending on its activity. For the validation of HTS hits, 10 μM of compound was added to each bacterial suspension and the resulting biofilm stained with LIVE/DEAD® BacLight™ Bacterial Viability Kit. The images were analyzed to determine the live and dead ratios of biofilm bacteria, the thickness of biofilms, and structural attributes of biofilms.

The test system of experiment [2] is S. epidermidis biofilm. The experiment in a line: HTS live biofilm assay (resazurin metabolic activity). The experiment is classed as cell-based. The following applies: Staphylococcus epidermidis, dose-response. Background: Alamar Blue is a resazurin reagent that responds to reducing activity.
For another experiment, the system named is P. aeruginosa. The experiment in a line: MIC determination (CLSI, Mueller Hinton broth), planktonic cultures. The experiment is classed as cell-based, Pseudomonas aeruginosa. The conditions noted are these: for MIC: Pseudomonas aeruginosa. The procedure:
A standard protocol for determining the MIC of a specific compound as outlined by the Clinical and Laboratory Standards Institute (CLSI) was used, based on growth of the selected bacteria in Mueller Hinton (MH) broth with subsequent 2-fold dilutions of compounds of interest. Following the CLSI protocols, the MIC of each broad spectrum “hit” compound was performed in all 3 bacterial species in both aerobic and anaerobic conditions. All bacteria were grown in MH broth for 18 hrs at 37° C. The cells were then diluted 100-fold into MH broth containing compounds at concentrations ranging from 0.40-50 μM in the presence of either KNO3 or glucose to allow bacterial growth under anaerobic condition. After 24 hrs of incubation, cell growth was measured at OD600 using a SpectraMax 190 Absorbance Microplate Reader.
The HTS and CLSM assays identified and confirmed compounds that can inhibit biofilms formation in aerobic growth conditions. However, P. aeruginosa and S. epidermidis are capable of growth under anaerobic as well as aerobic conditions. […] The Minimal Inhibitory Concentrations (MIC) of the four broad agent hit compounds under both aerobic and anaerobic conditions of planktonic P. aeruginosa and S. epidermidis cultures were determined to evaluate compound efficacy in different growth conditions. The MICs for A. baumannii were determined only in aerobic conditions. To examine growth in aerobic conditions, bacteria were grown in either Mueller Hinton (MH) media only, MH media in the presence of 1% KNO3, or MH in the presence of 1% glucose. For MIC determinations under anaerobic conditions, growth was examined in MH media with 1% KNO3 or with 1% glucose.

Where [3] appears, read: MH with 1% KNO3, Aerobic, read-out: Minimum Inhibition Concentration.
Where [4] appears, read: MH with 1% KNO3, Anaerobic, read-out: Minimum Inhibition Concentration.
Setting [5] is: MH, Aerobic, read-out: Minimum Inhibition Concentration.
The mark [6] stands for this setting: across all growth conditions (aerobic and anaerobic), read-out: concentration required to inhibit planktonic P. aeruginosa growth (MIC).

Regarding `O=C(O)c1cn(C2CC2)c2c(F)c(N3CC(O)C3)c(F)cc2c1=O` [Compound 8, 1-cyclopropyl-6,8-difluoro-7-(3-hydroxyazetidin-1-yl)-4-oxoquinoline-3-carboxylic acid], the “killing of residential bacteria, co-culture (CLSM, in words)” value (from here on “killing of residential bacteria”) in the experiment on S. epidermidis biofilm [1] is given as “killed residential bacteria”. Moreover, the “Co-culture of bacteria with compound: Killing” value (“Co-culture of bacteria” below) in the experiment with S. epidermidis biofilm [1] was “Y (A hit was defined as a >50% dead to live ratio)”. Further, the AC50 in the experiment on S. epidermidis biofilm [2] is below 100 nM. Also, the “Minimum Inhibition Concentration” value with P. aeruginosa (MH with 1% KNO3, Anaerobic) turned out to be 7.81 ± 2.71 µM. Also, the MIC was at most 20 µM with P. aeruginosa (setting [3]), 7 µM (≈ 2.35 µg/mL) with P. aeruginosa (setting [4]) and 10.4 ± 2.08 µM (≈ 3.5 µg/mL) in the experiment with P. aeruginosa (setting [5]).

With `O=C(O)c1cn(C2CC2)c2c(F)c(-c3ccncc3)c(F)cc2c1=O` [Compound 11, 7-(4-pyridyl)-1-cyclopropyl-6,8-difluoro-4-oxoquinoline-3-carboxylic acid], the “killing of residential bacteria” value in the experiment on S. epidermidis biofilm [1] is given as “killed”. Besides, the “Co-culture of bacteria” value in the experiment on S. epidermidis biofilm [1] is listed as “Y (A hit was defined as a >50% dead to live ratio)”. The compound also came in with an AC50 in the experiment on S. epidermidis biofilm [2] below 100 nM. Moreover, the MIC was above 50 µM with P. aeruginosa (setting [3]), 25 ± 12.5 µM (≈ 8.56 µg/mL) with P. aeruginosa (setting [4]), above 50 µM in the experiment with P. aeruginosa (setting [5]) and at least 25 µM with P. aeruginosa (setting [6]).

Turning to `Cn1sc(Cl)c(C#N)c1=O` [Compound 3, 5-chloro-2-methyl-3-oxo-1,2-thiazole-4-carbonitrile], the “killing of residential bacteria” value with S. epidermidis biofilm [1] is recorded as “killed residential bacteria”. Moreover, in the experiment with S. epidermidis biofilm [1], the “Co-culture of bacteria” value is “Y (A hit was defined as a >50% dead to live ratio)”. The same compound yielded an AC50 in the experiment on S. epidermidis biofilm [2] of 8610 nM. The MIC with P. aeruginosa (setting [3]) is 33.3 ± 8.33 µM (≈ 5.82 µg/mL); in the experiment on P. aeruginosa (setting [4]), 25 µM (≈ 4.37 µg/mL); in the experiment with P. aeruginosa (setting [5]), above 50 µM; in the experiment with P. aeruginosa (setting [6]), at least 25 µM.

In the case of `NC(=S)N1CCN(c2cc3c(cc2F)c(=O)c(C(=O)O)cn3C2CC2)CC1` [Compound 7, 7-(4-carbamothioylpiperazin-1-yl)-1-cyclopropyl-6-fluoro-4-oxoquinoline-3-carboxylic acid], the “killing of residential bacteria” value with S. epidermidis biofilm [1] is reported as “killed residential bacteria”. For the same compound, the “Co-culture of bacteria” value in the experiment with S. epidermidis biofilm [1] is reported as “Y (A hit was defined as a >50% dead to live ratio)”. For the same compound, the activity with S. epidermidis biofilm [2] was half-maximal at 850 nM (AC50). Besides, the MIC is 5.21 ± 1.04 µM (≈ 2.03 µg/mL) in the experiment on P. aeruginosa (setting [3]), 4.17 ± 1.04 µM (≈ 1.63 µg/mL) in the experiment with P. aeruginosa (setting [4]), 4.7 ± 1.04 µM (≈ 1.84 µg/mL) with P. aeruginosa (setting [5]) and 4 to 5 µM (≈ 1.56 to 1.95 µg/mL) in the experiment on P. aeruginosa (setting [6]).
